# Columns and labels:
# [1] = tested on: enzyme associated with Bacillus stearothermophilus spores; assay: Rapid enzyme fluorescence readout of dual rapid readout indicators after prevacuum steam sterilization; assay type: biochemical; conditions: 4-pulse prevacuum steam 121° C.
# Method: (§1) The indicators prepared for the Examples were dual rapid readout indicators that provided both a rapid, enzyme-based efficacy test and a confirmatory spore outgrowth test. Spores coated on the carrier strip 16 served as the source of active enzyme whose activity was measured by the rapid enzyme test. These same spores were then incubated in the spore outgrowth portion of the test.
# (§2) Bacillus stearothermophilus, commercially available as ATCC 7953 from American Type Culture Collection, Rockville, Md., was grown overnight (16 hours) at 58° C. in tryptic soy broth. This culture was used to inoculate the surface of agar plates consisting of 8 g/l nutrient broth, 4 g/l yeast extract, 0.1 g/l manganese chloride and 20 g/l agar at pH 7.2. Plates were incubated at 58° C. for 72 hours. Spores were scraped from the plates and suspended in sterile distilled water. The spores were separated from the vegetative debris by centrifuging the suspension at 7000 rpm and 4° C. for 20 minutes. The supernatant was poured off and the spores were resuspended in sterile distilled water. The cleaning procedure was repeated several times. After the final wash, the spores were suspended in sterile distilled water, at a concentration of approximately 1×10^8 spores per milliliter.
# (§3) The spores were then treated with the chemicals identified in Tables 1–5. All chemicals tested were obtained from commercial sources. The spores were centrifuged at 6000 rpm for 10 minutes. The supernatant and coating chemical mixtures were heated at 60–80° C. for several minutes and vortexed to get the material into solution. The spores were then mixed into the sterilant-resistant chemical solution. The sterilant-resistant chemical solution was applied to 5×25 mm, 591 A paper strips (Schleicher & Schuell, Inc., Keene, N.H.) by pipetting 10–15 microliters to each strip for a final population of about 1×10^6 spores per strip. The strips were dried 16 hours at 37° C.
# (§4) The treated spore strips were placed on the bottom of the outer container 12 of the indicator 10 and a barrier was inserted between the spore strip 16 and the inner container 18, which contained enzyme substrate. A […] ( 11/16 inch) disc of polypropylene blown microfiber material, with a weight of 200 g/m^2, commercially available as “THINSULATE™ 200-B brand Thermal Insulation” from 3M Company, St. Paul, Minn., was used as the barrier. The inner container 18 contained 0.67 ml nutrient medium, consisting of 17 g of a bacteriological peptone and a 0.17 g/l of L-alanine, as well as 0.1 g 4-methylumbelliferyl-alpha-D-glucoside, commercially available from Sigma Chemical Company, St. Louis, Mo., dissolved in 200 microliters of N,N-dimethylformamide, and 0.03 g bromocresol purple pH indicator dye, per liter of water. The pH of the enzyme substrate and nutrient medium solution was adjusted to 7.6 with 0.1N sodium hydroxide.
# (§5) Sterilization indicators were made as described above with each of the chemicals and concentrations described in Table 1. Control indicators were made using untreated spores. The indicators were placed in metal instrument trays and exposed at 121° C. in a Getinge Steam Sterilizer (Getinge International, Inc., 1100 Towbin Ave., Lakewood, N.J.) using a 4-pulse prevacuum cycle at 121° C. with a vacuum level of 0.075–0.085 bar and a steam pulse to 1.00 bar for each pulse. Indicators were exposed in the sterilizer for between 7 and 13 minutes. This cycle is depicted in the time-pressure diagram in FIG. 5. After exposure the inner containers containing the enzyme substrate and nutrient medium were crushed and the indicators were incubated at 60° C. The indicators were examined for fluorescence using a 3M™ ATTEST™ Model 190 Rapid Autoreader, commercially available from 3M Company, St. Paul, Minn. Additionally, spore growth, as indicated by a color change from purple to yellow, was determined visually after 168 hours of incubation at 60° C. […]
# [2] = tested on: Bacillus stearothermophilus spores; assay: Spore outgrowth (color change) of indicators after prevacuum steam sterilization; assay type: cell-based; conditions: 4-pulse prevacuum steam 121° C.
# Method: as §1, §2, §3, §4, §5
# [3] = Example 1, 20 mg/ml coating, 7–13 min
# [4] = Example 1, 40 mg/ml coating, 7–13 min
# [5] = Example 5, 50 mg/ml coating, 7–13 min
# [6] = Example 5, 100 mg/ml coating, 7–13 min
# [7] = Example 4, 25 mg/ml coating, 7–18 min
# [8] = Example 4, 50 mg/ml coating, 7–18 min
# [9] = Example 4, 100 mg/ml coating, 7–18 min
# [10] = Example 3, 100 mg/ml coating, 7–15 min
Compound,"FLUORESCENCE - PERCENT POSITIVE 1 HR [1, 5]","FLUORESCENCE - PERCENT POSITIVE 2 HR [1, 5]","FLUORESCENCE - PERCENT POSITIVE 3 HR [1, 5]","FLUORESCENCE - PERCENT POSITIVE 4 HR [1, 5]","FLUORESCENCE - PERCENT POSITIVE 1 HR [1, 6]","FLUORESCENCE - PERCENT POSITIVE 2 HR [1, 6]","FLUORESCENCE - PERCENT POSITIVE 3 HR [1, 6]","FLUORESCENCE - PERCENT POSITIVE 4 HR [1, 6]","NO. GROWTH POSITIVE 168 HR [2, 5]","NO. GROWTH POSITIVE 168 HR [2, 6]",accuracy of sterilization indicators compared to indicators made with untreated spores [1],"FLUORESCENCE - PERCENT POSITIVE 1 HR [1, 8]","FLUORESCENCE - PERCENT POSITIVE 2 HR [1, 8]","FLUORESCENCE - PERCENT POSITIVE 3 HR [1, 8]","FLUORESCENCE - PERCENT POSITIVE 4 HR [1, 8]","FLUORESCENCE - PERCENT POSITIVE 1 HR [1, 9]","FLUORESCENCE - PERCENT POSITIVE 2 HR [1, 9]","FLUORESCENCE - PERCENT POSITIVE 3 HR [1, 9]","FLUORESCENCE - PERCENT POSITIVE 4 HR [1, 9]","NO. GROWTH POSITIVE 168 HR [2, 9]",further results
Glycereth-7-diisononanoate,–,–,–,–,–,–,–,–,–,–,–,–,–,–,–,–,–,–,–,–,"FLUORESCENCE - PERCENT POSITIVE 1 HR [1, 3]: 0%; FLUORESCENCE - PERCENT POSITIVE 2 HR [1, 3]: 0%; FLUORESCENCE - PERCENT POSITIVE 3 HR [1, 3]: 66.7%; FLUORESCENCE - PERCENT POSITIVE 4 HR [1, 3]: 83.3%; FLUORESCENCE - PERCENT POSITIVE 5 HR [1, 3]: 83.3%; FLUORESCENCE - PERCENT POSITIVE 6 HR [1, 3]: 83.3%; FLUORESCENCE - PERCENT POSITIVE 1 HR [1, 4]: 0%; FLUORESCENCE - PERCENT POSITIVE 2 HR [1, 4]: 64.7%; FLUORESCENCE - PERCENT POSITIVE 3 HR [1, 4]: 88.2%; FLUORESCENCE - PERCENT POSITIVE 4 HR [1, 4]: 88.2%; FLUORESCENCE - PERCENT POSITIVE 5 HR [1, 4]: 94.1%; FLUORESCENCE - PERCENT POSITIVE 6 HR [1, 4]: 100.0%; NO. GROWTH POSITIVE 168 HR [2, 3]: 6; NO. GROWTH POSITIVE 168 HR [2, 4]: 17"
POE(5) Glyceryl Monooleate,0%,0%,0%,0%,0%,0%,0%,0%,2,2,–,–,–,–,–,–,–,–,–,–,–
Hexaglyceryl Distearate,–,–,–,–,–,–,–,–,–,–,improved,30.3%,57.6%,97%,100%,71.4%,100%,100%,100%,21,"FLUORESCENCE - PERCENT POSITIVE 1 HR [1, 7]: 27.6%; FLUORESCENCE - PERCENT POSITIVE 2 HR [1, 7]: 51.7%; FLUORESCENCE - PERCENT POSITIVE 3 HR [1, 7]: 58.6%; FLUORESCENCE - PERCENT POSITIVE 4 HR [1, 7]: 62.1%; NO. GROWTH POSITIVE 168 HR [2, 7]: 29; NO. GROWTH POSITIVE 168 HR [2, 8]: 33"
Decaglyceryl Monooleate,0%,0%,0%,0%,0%,50%,100%,100%,6,2,improved,0%,0%,0%,0%,7.7%,23.1%,50%,73.1%,26,"NO. GROWTH POSITIVE 168 HR [2, 8]: 10"
OC[C@@H](O)[C@@H](O)[C@H](O)[C@@H](O)CO [Sorbitol],–,–,–,–,–,–,–,–,–,–,–,–,–,–,–,5.4%,40.5%,81.1%,89.2%,37,"FLUORESCENCE - PERCENT POSITIVE 1 HR [1, 10]: 0%; FLUORESCENCE - PERCENT POSITIVE 2 HR [1, 10]: 52.8%; FLUORESCENCE - PERCENT POSITIVE 3 HR [1, 10]: 83.3%; FLUORESCENCE - PERCENT POSITIVE 4 HR [1, 10]: 91.7%; GROWTH POSITIVE 168 HR [2, 10]: 36"

# From patent publication US7045343B2, “Sterilization indicator test packs” (3M Innovative Properties Company, priority 1998, dated 2006)
